Measurements published in patent US20260374767A1, “FUSED HETEROCYCLIC COMPOUNDS AND USES THEREOF” (Chengdu Zenitar Biomedical Technology Co., Ltd., priority 2022, published 2026).

Columns and labels:
[1] = tested on: breast cancer MDA-MB-436; experiment: In-vivo pharmacodynamic study on subcutaneous xenograft tumor model of breast cancer MDA-MB-436; design: species or system human tumor cells in NOD/SCID mice; settings: for inhibitory effects on tumor growth compared to blank control group: all dose groups
Experimental: Strain: NOD/SCID; Grade: SPF; Source: Beijing Vitron River Bio-technology Co., Ltd.
The cells were washed 3 times with pre-cooled PBS, centrifuged at 300 g for 10 min, collected, re-suspended in PBS, and counted with a blood cell counting chamber, and the cell concentration was adjusted. After cell collection, the cell suspension was pre-cooled on ice. 100 μL of the cell suspension was administered via subcutaneous injection into the dorsal flank of the mice, and the grouped treatment was started when the tumor volume reached 200-300 mm^3.
Animal assay: all viable experimental animals scheduled for assay; Assay time: All animals were weighed before the modeling for test grouping. After modeling, the mice were weighed once every 2 days, and the weight change of the mice was recorded in real time. Effective criteria: tumor volume (TV), relative tumor volume (RTV) and relative tumor growth rate of subcutaneously implanted tumor model. […] The calculation formula of tumor volume (TV) was: TV (mm^3)=a×b2×0.5, where a and b were the long diameter and short diameter, respectively.
The evaluation index for anti-tumor activity was the relative tumor growth rate T/C (%), and the calculation formula was as follows: […]
Where, TRTV is relative tumor volume of the treatment group; CRTV is relative tumor volume of the negative control group. […] The tumor inhibition rate (%) was calculated by the formula below: […]
All raw data within the facility were collected manually according to the experimental scheme and the relevant guidelines of the research institution, or gathered by using a data acquisition system. Manually collected data can be transcribed into software such as Excel for analysis and reporting. The data from each group were quantitative, and the experimental data for each group of animals in the tables were expressed as mean±standard deviation (Mean±SD). In the figures, the experimental data ware described as mean±standard error of the mean (Mean±SEM). Statistical analysis, including t-tests and survival analysis, was performed by using the software such as EXCEL and GraphPad Prism.
After 24 days of administration, the tumor-bearing mice were anesthetized and euthanized. The tumor tissues were dissected, weighed, and photographed, and the tumor inhibition rate was calculated.

[2] = Body weight in MDA-MB-436 xenograft study; format: in vivo, NOD/SCID mice; settings: for Body weight X ± SD, End: 24 days
Experimental: Animal assay: all viable experimental animals scheduled for assay; Assay time: All animals were weighed before the modeling for test grouping. After modeling, the mice were weighed once every 2 days, and the weight change of the mice was recorded in real time. Effective criteria: tumor volume (TV), relative tumor volume (RTV) and relative tumor growth rate of subcutaneously implanted tumor model. The long diameter and short diameter of the tumor was measured with vernier calipers every 2 days, and the anti-tumor effects of the tested drug was dynamically observed. The calculation formula of tumor volume (TV) was: TV (mm^3)=a×b2×0.5, where a and b were the long diameter and short diameter, respectively.
Each group consisted of 6 mice, all of which are administered orally once daily. […] After 24 days of administration, the tumor-bearing mice were anesthetized and euthanized. The tumor tissues were dissected, weighed, and photographed, and the tumor inhibition rate was calculated.

[3] = tested on: breast cancer MDA-MB-436; experiment: Challenge experiment on subcutaneous xenograft tumor model of breast cancer MDA-MB-436 (large-volume tumors); settings: 1 mg/kg orally once per day
[4] = tested on: DLD-1 cells; experiment: Anti-proliferative activity assay, BRCA wild-type DLD-1 cells (CCK8); format: cell-based; settings: Homo sapiens, 72 h + 96 h
Source text: (§1) 2. Anti-Proliferative Activity Assay of Cell:

[5] = tested on: MDA-MB-436 cells; experiment: Anti-proliferative activity assay, BRCA-mutated MDA-MB-436 cells (CCK8); format: cell-based; settings: Homo sapiens, MDA-MB-436, BRCA-mutated, 72 h + 96 h
Source text: as §1

[6] = Pharmacokinetic evaluation in Balb/c mice; format: in vivo; settings: mouse, plasma, 1 mg/kg, PO
[7] = biological target: PARP1 (Homo sapiens, UniProt P09874); experiment: Determination of PARP1 Enzyme; format: biochemical; settings: read-out: PARP-1 inhibition ratio
Experimental: 1.1 Determination of PARP1 Enzyme
1.1.1 Preparation of buffer solution: PBST: 1× PBS, 0.05% Tween-20; blocking solution: 1× PBS, 0.05% Tween-20, 5% BSA; reaction buffer: 50 mM Tris-HCl (pH 7.5), 0.005% Tween-20, 0.01% BSA.
1.1.2 Coating: A 50 ng/mL Histone coating solution was prepared by using 1× PBS, 25 μL of the coating solution was transferred to a 384-well reaction plate, and the reaction plate was coated overnight at 4 °C.
1.1.3 Washing: After the coating was completed, the coating solution was discarded, and the reaction plate was washed with the PBST solution by means of transferring 50 μL of the PBST to the 384-well reaction plate, letting it stand for 5 min, discarding the washing solution, refilling the reaction plate, and repeating the washing process 3 times. Finally, the reaction plate was tapped dry and the next step of blocking was proceeded with.
1.1.4 Blocking: 50 μL of the blocking solution was transferred to the 384-well reaction plate and set for 1 h.
Washing: After the blocking was completed, the blocking solution was discarded, the reaction plate was washed 3 times with the PBST solution according to the method in Step 2, and the reaction plate was tapped dry.
1.1.5 A 1,000× compound was prepared, 1 μL of the compound was transferred to a 96-well plate containing 199 μL of the reaction buffer, mixed well, and then 5 µL of the mixed compound was transferred to the 384-well reaction plate.
1.1.6 A 25/10× PARP1-DNA solution was prepared by using the reaction buffer, 10 μL of the PARP1-DNA solution was transferred to the 384-well reaction plate. For a negative control well, 10 μL of the DNA solution was transferred and the final concentration of PARP1 was 0.02 nM and that of DNA was 0.8 nM.
1.1.9 Washing: After the reaction was completed, the reaction liquid was discarded. The reaction plate was washed 3 times with the PBST solution according to the method in Step 2, and the reaction plate was tapped dry.
1.1.11 Washing: The anti-Poly/Mono-ADP Ribose Rabbit was discarded, the reaction plate was washed 3 times with the PBST solution according to the method in Step 2, and the reaction plate was tapped dry.
1.1.12 A 2,000× anti-rabbit IgG, HRP-linked Antibody was diluted with the blocking solution, 20 μL of the diluted anti-rabbit IgG, HRP-linked Antibody was added, and incubated at room temperature for 1 h.
1.1.13 Washing: The anti-rabbit IgG, HRP-linked Antibody was discarded, the reaction plate was washed 3 times with the PBST solution according to the method in Step 2, and the reaction plate was tapped dry.
1.1.14 Color developing: Femto-ECL Substrate A and Femto-ECL Substrate B were mixed in a 1:1 ratio, and 25 μL of the mixture was transferred to the 384-well reaction plate.
1.1.15 Reading: A relative light unit (RLU) was read with Envision.

[8] = 0.1 mg/kg orally once daily, 24 days

Sequence of PARP1 (P09874 whole entry): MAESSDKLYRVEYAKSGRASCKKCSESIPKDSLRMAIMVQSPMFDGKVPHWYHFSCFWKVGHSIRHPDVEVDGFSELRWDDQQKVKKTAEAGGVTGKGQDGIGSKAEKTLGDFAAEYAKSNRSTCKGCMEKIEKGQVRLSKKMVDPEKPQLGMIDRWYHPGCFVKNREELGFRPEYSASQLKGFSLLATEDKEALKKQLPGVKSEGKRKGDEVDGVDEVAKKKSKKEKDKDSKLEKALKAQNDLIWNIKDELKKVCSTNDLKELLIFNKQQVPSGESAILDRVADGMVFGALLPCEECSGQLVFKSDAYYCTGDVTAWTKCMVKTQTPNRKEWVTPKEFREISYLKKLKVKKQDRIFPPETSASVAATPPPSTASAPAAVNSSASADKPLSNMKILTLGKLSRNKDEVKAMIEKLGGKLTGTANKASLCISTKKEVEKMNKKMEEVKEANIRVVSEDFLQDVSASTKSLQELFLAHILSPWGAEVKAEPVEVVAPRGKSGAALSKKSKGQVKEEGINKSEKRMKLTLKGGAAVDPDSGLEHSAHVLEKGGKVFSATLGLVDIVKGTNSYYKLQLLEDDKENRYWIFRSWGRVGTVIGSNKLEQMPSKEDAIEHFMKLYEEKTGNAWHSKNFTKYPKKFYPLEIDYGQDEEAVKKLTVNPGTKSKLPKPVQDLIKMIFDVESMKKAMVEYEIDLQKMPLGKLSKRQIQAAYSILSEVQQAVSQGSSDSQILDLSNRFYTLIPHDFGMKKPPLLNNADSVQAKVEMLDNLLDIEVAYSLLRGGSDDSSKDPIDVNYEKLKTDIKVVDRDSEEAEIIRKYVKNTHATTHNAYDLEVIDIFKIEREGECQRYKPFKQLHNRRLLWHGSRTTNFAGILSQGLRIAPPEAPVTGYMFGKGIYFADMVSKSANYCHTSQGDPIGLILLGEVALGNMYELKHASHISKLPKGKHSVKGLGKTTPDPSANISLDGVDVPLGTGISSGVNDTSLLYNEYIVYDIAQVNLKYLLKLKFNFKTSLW

Row | SMILES | inhibitory effects on tumor growth compared to blank control group ([1]; 24 days) | IC50 [4] [nM] | IC50 [5] [nM] | inhibition at 0.01 µM [7] [%] | inhibition at 0.1 µM [7] [%] | other results
1 | CCc1cc2ncc(CN3CCN(c4ccc(C(=O)NC)nc4)CC3)cc2[nH]c1=O [AZD5305, reference compound] | significant inhibitory effects on tumor growth | – | – | – | – | Body weight X ± SD, End ([2]; 0.1 mg/kg orally once daily): 21.8 ± 1.0 g; Body weight X ± SD, Start ([2]; 0.1 mg/kg orally once daily): 21.9 ± 0.7 g
2 | CCc1cc2ncc(CN3CC=C(c4ccc(C(=O)NC)nc4)CC3)cc2[nH]c1=O [Compound 1] | significant inhibitory effects on tumor growth | > 10000 | 0.9 | – | – | tumor regression in large-volume tumors [3]: complete regression of tumors; Tumor inhibition rate [1, 8]: 82.18%; Tumor weight X ± SD [1, 8]: 0.39 ± 0.28 g; Tumor volume X ± SD, End ([1]; 0.1 mg/kg orally once daily, end, 24 days): 304.9 ± 141.7 mm^3; Tumor volume X ± SD, Start ([1]; 0.1 mg/kg orally once daily, start): 271.4 ± 76.6 mm^3; CL/F [6]: 0.167 mL/min/kg; Body weight X ± SD, End ([2]; 0.1 mg/kg orally once daily): 21.6 ± 1.1 g; Body weight X ± SD, Start ([2]; 0.1 mg/kg orally once daily): 21.6 ± 0.3 g
3 | [2H]C([2H])([2H])NC(=O)c1ccc(C2=CCN(Cc3cnc4cc(CC)c(=O)[nH]c4c3)CC2)cn1 [Compound 2] | – | > 10000 | 1.1 | – | – | –
4 | [2H]C(c1cnc2cc(CC)c(=O)[nH]c2c1)N1CC=C(c2ccc(C(=O)NC)nc2)CC1 (stereo not shown) [Compound 3] | – | > 10000 | 1 | – | – | –
5 | [2H]C([2H])([2H])NC(=O)c1ccc(C2=CCN(Cc3cnc4cc(C([2H])([2H])C([2H])([2H])[2H])c(=O)[nH]c4c3)CC2)cn1 [Compound 11, 1′-((7-(ethyl-d5)-6-oxo-5,6-dihydro-1,5-naphthyridin-3-yl)methyl)-N-(methyl-d3)-1′,2′,3′,6′-tet rahydro-[3,4′-bipyridine]-6-carboxamide] | – | > 10000 | 0.8 | – | – | –
6 | [2H]C([2H])([2H])C([2H])([2H])c1cc2ncc(CN3CC=C(c4ccc(C(=O)NC5CC5)nc4)CC3)cc2[nH]c1=O [Compound 12, N-cyclopropyl-1′-((7-(ethyl-d5)-6-oxo-5,6-dihydro-1,5-naphthyridin-3-yl)methyl)-1′,2′,3′,6′-tet rahydro-[3,4′-bipyridine]-6-carboxamide] | – | – | – | 99.8 | 99.9 | –
7 | [2H]C([2H])([2H])C([2H])([2H])c1nc2ccc(CN3CC=C(c4ccc(C(=O)NC)nc4)CC3)c(F)c2[nH]c1=O [Compound 13, 1′-((2-(ethyl-d5)-5-fluoro-3-oxo-3,4-dihydroquinoxalin-6-yl)methyl)-N-methyl-1′,2′,3′,6′-tetra hydro-[3,4′-bipyridine]-6-carboxamide] | – | – | – | 96.1 | 98.5 | –
8 | [2H]C([2H])([2H])C([2H])([2H])c1nc2ccc(CN3CC=C(c4ccc(C(=O)NC)nc4F)CC3)c(F)c2[nH]c1=O [Compound 14, 1′-((2-(ethyl-d5)-5-fluoro-3-oxo-3,4-dihydroquinoxalin-6-yl)methyl)-2-fluoro-N-methyl-1′,2′,3′,6′-tetrahydro-[3,4′-bipyridine]-6-carboxamide] | – | – | – | 98.9 | 99.1 | –
9 | [2H]C([2H])([2H])Cc1cc2ncc(CN3CC=C(c4ccc(C(=O)NC)nc4)CC3)cc2[nH]c1=O [Compound 16, 1′-((7-(ethyl-2,2,2-d3)-6-oxo-5,6-dihydro-1,5-naphthyridin-3-yl)methyl)-N-methyl-1′,2′,3′,6′-t etrahydro-[3,4′-bipyridine]-6-carboxamide] | – | > 10000 | 0.7 | – | – | –
10 | O=C(c1cc(Cc2n[nH]c(=O)c3ccccc23)ccc1F)N1CCN(C(=O)C2CC2)CC1 [Olaparib, reference compound] | significant inhibitory effects on tumor growth | – | – | – | – | Body weight X ± SD, End ([2]; 100 mg/kg orally once daily): 21.7 ± 1.4 g; Body weight X ± SD, Start ([2]; 100 mg/kg orally once daily): 21.9 ± 1.1 g
